Experimental data as given in US7355042B2, “Treatment of CNS disorders using CNS target modulators” (Hypnion, Inc., priority 2001, dated 2008).
Values joined by “and” are separate entries in the source; they are usually repeats but may differ in a detail not shown here. Equal entries are not always repeated. Blank lines part the entries; values can stand above or below the molecule they belong to.

Experiments:
[1] = target: T1, H1 receptor from bovine cellular membranes (Bos taurus, UniProt P30546); assay: H1 binding assay, [3H]pyrilamine displacement; conditions: for IC50: Table 6, Series 11, unit inferred; for Ki: Examples 15-17, read-out: Ki, H1 binding assay
T1 construct: the H1 receptor was from bovine cellular membranes; from tissue

[2] = tested on: male Wistar rats; assay: Sleep-wakefulness, locomotor activity and body temperature monitoring (SCORE-2000); format: in vivo, rat; conditions: for total sleep time post-treatment: 10 mg/kg PO at CT-18, versus methylcellulose vehicle; for body temperature adverse effects / disproportional locomotor inhibition: rats
[3] = target: T2, human recombinant M1 muscarinic receptor expressed in CHO cells (Homo sapiens, UniProt P11229); assay: M1 binding assay (human recombinant), [3H]-scopolamine N-methyl chloride; conditions: Examples 15-17; unit inferred; read-out: binding affinity for cholinergic (muscarinic) receptor M1
T2 construct: expressed in transfected cells; host or cells: CHO cells
T2 sequence (P11229 1-460): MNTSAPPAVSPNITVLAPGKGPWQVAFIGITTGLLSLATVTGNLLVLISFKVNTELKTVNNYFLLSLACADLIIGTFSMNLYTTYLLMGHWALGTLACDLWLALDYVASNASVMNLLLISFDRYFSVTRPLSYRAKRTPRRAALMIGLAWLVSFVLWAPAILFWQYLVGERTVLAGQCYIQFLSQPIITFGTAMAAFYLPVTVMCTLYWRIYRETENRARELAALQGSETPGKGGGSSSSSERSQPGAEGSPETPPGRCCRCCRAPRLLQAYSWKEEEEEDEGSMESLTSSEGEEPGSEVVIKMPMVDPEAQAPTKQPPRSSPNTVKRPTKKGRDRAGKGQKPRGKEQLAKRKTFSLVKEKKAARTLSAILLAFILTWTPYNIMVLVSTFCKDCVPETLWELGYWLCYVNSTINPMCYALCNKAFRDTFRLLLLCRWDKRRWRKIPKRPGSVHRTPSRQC

[4] = target: T3, human recombinant M2 muscarinic receptor expressed in CHO cells (Homo sapiens, UniProt P08172); assay: M2 binding assay (human recombinant); conditions: Examples 15-17; unit inferred; read-out: binding affinity for cholinergic (muscarinic) receptor M2
T3 construct: expressed in transfected cells; host or cells: CHO cells
T3 sequence (P08172 1-466): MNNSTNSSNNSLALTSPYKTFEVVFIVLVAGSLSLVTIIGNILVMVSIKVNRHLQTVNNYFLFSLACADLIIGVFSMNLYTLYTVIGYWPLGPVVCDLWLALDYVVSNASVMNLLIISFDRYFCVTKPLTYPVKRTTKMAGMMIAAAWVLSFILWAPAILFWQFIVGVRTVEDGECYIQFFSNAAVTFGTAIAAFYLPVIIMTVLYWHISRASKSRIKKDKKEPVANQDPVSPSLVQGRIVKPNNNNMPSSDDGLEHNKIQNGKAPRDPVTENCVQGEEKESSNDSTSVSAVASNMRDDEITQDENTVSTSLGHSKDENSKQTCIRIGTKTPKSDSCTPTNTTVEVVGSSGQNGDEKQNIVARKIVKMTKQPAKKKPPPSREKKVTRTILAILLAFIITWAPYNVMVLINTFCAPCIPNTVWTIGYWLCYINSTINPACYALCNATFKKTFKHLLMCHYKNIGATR

[5] = target: T4, human recombinant M3 muscarinic receptor expressed in CHO cells (Homo sapiens, UniProt P20309); assay: M3 binding assay (human recombinant); conditions: Examples 15-17; unit inferred; read-out: binding affinity for cholinergic (muscarinic) receptor M3
T4 construct: expressed in transfected cells; host or cells: CHO cells

[6] = tested on: M3 receptor from guinea pig ileum membranes; conditions: read-out: Ki of reference compounds, M3 binding assay; cited from earlier work
[7] = 10 mg/kg PO at CT-18, male Wistar rats
[8] = 30 mg/kg and 10 mg/kg, intraperitoneal bolus at CT-18
[9] = intraperitoneal at CT-18, 11f 10 or 30 mg/kg, 6f and 15f 30 mg/kg

T1 sequence (P30546 whole entry): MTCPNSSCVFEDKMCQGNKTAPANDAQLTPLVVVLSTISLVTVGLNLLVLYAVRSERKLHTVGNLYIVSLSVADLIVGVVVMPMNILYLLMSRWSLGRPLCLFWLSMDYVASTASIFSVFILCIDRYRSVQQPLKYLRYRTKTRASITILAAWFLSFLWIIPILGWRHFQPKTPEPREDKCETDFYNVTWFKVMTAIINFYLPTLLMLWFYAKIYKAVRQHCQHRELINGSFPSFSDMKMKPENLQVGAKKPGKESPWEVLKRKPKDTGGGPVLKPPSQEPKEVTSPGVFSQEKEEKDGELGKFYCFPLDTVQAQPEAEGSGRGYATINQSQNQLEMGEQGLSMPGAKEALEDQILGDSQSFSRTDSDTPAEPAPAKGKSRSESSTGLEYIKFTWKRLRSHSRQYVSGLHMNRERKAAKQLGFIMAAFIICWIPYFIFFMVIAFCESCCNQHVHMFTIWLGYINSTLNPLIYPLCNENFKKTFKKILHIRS
T4 sequence (P20309 whole entry): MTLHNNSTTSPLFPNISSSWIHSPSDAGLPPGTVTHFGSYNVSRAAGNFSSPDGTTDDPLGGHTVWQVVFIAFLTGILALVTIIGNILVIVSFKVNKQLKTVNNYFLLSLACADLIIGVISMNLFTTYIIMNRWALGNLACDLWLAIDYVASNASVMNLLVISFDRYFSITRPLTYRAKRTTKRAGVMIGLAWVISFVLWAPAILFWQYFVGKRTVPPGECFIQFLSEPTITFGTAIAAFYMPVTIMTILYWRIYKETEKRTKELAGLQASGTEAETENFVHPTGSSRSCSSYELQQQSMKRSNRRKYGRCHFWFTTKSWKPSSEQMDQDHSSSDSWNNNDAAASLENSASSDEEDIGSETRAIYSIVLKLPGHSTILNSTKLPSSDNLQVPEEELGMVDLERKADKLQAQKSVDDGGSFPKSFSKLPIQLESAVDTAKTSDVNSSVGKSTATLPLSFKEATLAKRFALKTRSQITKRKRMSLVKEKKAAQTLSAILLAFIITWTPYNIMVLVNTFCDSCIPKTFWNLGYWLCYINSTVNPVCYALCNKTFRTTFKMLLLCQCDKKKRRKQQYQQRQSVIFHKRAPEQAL

- IC50 [1]: 308 nM
Compound: O=C(O)CCN1CCC(=C(c2ccccc2)c2ccccc2)CC1 [Compound 11a]
- Average Bout-Length ([2]; 30 mg/kg PO at CT-18): 11.2 min
- Duration ([2]; 30 mg/kg PO at CT-18): 6 h
- Maximum Bout Length ([2]; 30 mg/kg PO at CT-18): 18.7 min
- NREM Accum. ([2]; 30 mg/kg PO at CT-18): 41.2 min
- NREM Peak (%/hr) ([2]; 30 mg/kg PO at CT-18): 67.3 %/hr
- Onset ([2]; 30 mg/kg PO at CT-18): 85 min

- Ki [1]: < 500 nM and 13.6 nM
- Ki [3]: > 10000 nM
- Ki [4]: > 10000 nM
- Ki [5]: > 10000 nM
- REM sleep inhibition ([2]; functional criteria list): does not appreciably inhibit REM sleep
Compound: CC(C)(CN1CCC(N2c3ccccc3Sc3ccccc32)CC1)C(=O)O.Cl [Compound UU1]
- sleep continuity, as assessed by sleep bout length [2, 7]: increased sleep continuity
- total sleep time post-treatment [2]: significantly increased total sleep time
- net longest sleep bout post treatment ([2]; adjusted using a baseline value at least 24 hours prior, functional criteria list): greater than or equal to 3 minutes
- average sleep bout ([2]; at absolute peak, functional criteria list): greater than 5 minutes
- nonREM peak time value ([2]; by the third hour after administration, functional criteria list): greater than 55 % nonREM sleep per hour
- cumulative total increase in nonREM sleep ([2]; doses that produce maximum sleep consolidation, functional criteria list): not less than 20 minutes
- locomotor activity inhibition relative to the normal effects of sleep ([2]; functional criteria list): does not disproportionately inhibit locomotor activity
- longest sleep bout ([2]; functional criteria list): greater than 13 minutes
- rebound insomnia ([2]; functional criteria list): does not produce appreciable amounts of rebound insomnia
- body temperature adverse effects [2]: no evidence of causing disproportional locomotor inhibition or body temperature adverse effects
- disproportional locomotor inhibition [2]: no evidence of causing disproportional locomotor inhibition or body temperature adverse effects

- Ki [1]: 23.9 nM
- Ki [3]: > 10000 nM
- Ki [4]: > 10000 nM
- Ki [5]: > 10000 nM
Compound: CC(C)(CCN1CCN(C2=Nc3ccccc3Oc3ccc(Cl)cc32)CC1)C(=O)O [Compound SS1]
- sleep continuity, as assessed by sleep bout length [2, 7]: increased sleep continuity
- total sleep time post-treatment [2]: significantly increased total sleep time
- body temperature adverse effects [2]: no evidence of causing disproportional locomotor inhibition or body temperature adverse effects
- disproportional locomotor inhibition [2]: no evidence of causing disproportional locomotor inhibition or body temperature adverse effects

Compound: O[Si](CCCN1CCCCC1)(c1ccccc1)C1CCCCC1 (centres unmarked) [HHSID]
- Ki [6]: 281 nM

- IC50 [1]: 718 nM
Compound: CC(C)COC(=O)CCN1CCC(=C(c2ccccc2)c2ccccc2)CC1 [Compound 11e, Isobutyl 3-[4-(diphenylmethylidene)piperidin-1-yl]propanoate]
- Average Bout-Length ([2]; 30 mg/kg PO at CT-18): 8.3 min
- Duration ([2]; 30 mg/kg PO at CT-18): 6 h
- Maximum Bout Length ([2]; 30 mg/kg PO at CT-18): 19.1 min
- NREM Accum. ([2]; 30 mg/kg PO at CT-18): 49.6 min
- NREM Peak (%/hr) ([2]; 30 mg/kg PO at CT-18): 59.6 %/hr
- Onset ([2]; 30 mg/kg PO at CT-18): 80 min

Compound: CC(C)(CCN1CCC(=C2c3ccccc3COc3ccccc32)CC1)C(=O)O [Compound 75a]
- Average Bout-Length ([2]; 30 mg/kg PO at CT-18): 6.8 min
- Duration ([2]; 30 mg/kg PO at CT-18): 4 h
- Maximum Bout Length ([2]; 30 mg/kg PO at CT-18): 13.6 min
- NREM Accum. ([2]; 30 mg/kg PO at CT-18): 33.9 min
- NREM Peak (%/hr) ([2]; 30 mg/kg PO at CT-18): 58.8 %/hr
- Onset ([2]; 30 mg/kg PO at CT-18): 70 to 85 min
- Average Bout-Length ([2]; 45 mg/kg PO at CT-18): 10.8 min
- Duration ([2]; 45 mg/kg PO at CT-18): 5 h
- Maximum Bout Length ([2]; 45 mg/kg PO at CT-18): 19.4 min
- NREM Accum. ([2]; 45 mg/kg PO at CT-18): 33.9 min
- NREM Peak (%/hr) ([2]; 45 mg/kg PO at CT-18): 58.2 %/hr
- Onset ([2]; 45 mg/kg PO at CT-18): 70 to 85 min

- IC50 [1]: 1070 nM
Compound: O=C(CCN1CCC(=C(c2ccccc2)c2ccccc2)CC1)OC1CCCC1 [Compound 11f, Cyclopentyl 3-[4-(diphenylmethylidene)piperidin-1-yl]propanoate]
- cumulative effect on total sleep time (TST) during the initial 5 hours post-treatment, relative to baseline ([2]; 30 mg/kg IP versus Zolpidem 10 mg/kg): induced more TST than Zolpidem
- sleep continuity, as assessed by sleep bout length [2, 8]: increased sleep continuity
- time post-treatment over which total sleep time was increased [2, 8]: 3 h
- total sleep time [2, 8]: significantly increased total sleep time
- REM sleep inhibition [2, 9]: did not, however, produce REM sleep inhibition or rebound insomnia
- rebound insomnia [2, 9]: did not, however, produce REM sleep inhibition or rebound insomnia

- IC50 [1]: 378 nM
Compound: CC(C)OC(=O)CCN1CCC(=C(c2ccccc2)c2ccccc2)CC1 [Compound 11d, Isopropyl 3-[4-(diphenylmethylidene)piperidin-1-yl]propanoate]
- Average Bout-Length ([2]; 30 mg/kg PO at CT-18): 11.0 min
- Duration ([2]; 30 mg/kg PO at CT-18): 6 h
- Maximum Bout Length ([2]; 30 mg/kg PO at CT-18): 20.1 min
- NREM Accum. ([2]; 30 mg/kg PO at CT-18): 55.5 min
- NREM Peak (%/hr) ([2]; 30 mg/kg PO at CT-18): 58.5 %/hr
- Onset ([2]; 30 mg/kg PO at CT-18): 135 min
